This is an account of results in patent US20140303164A1, “THERAPEUTIC COMPOUNDS” (Gilead Sciences, Inc., priority 2013, published 2014).

One data set deals with HIV-IIIb. The data set can be described thus: Test A: Antiviral Assay in MT4 Cells. Type of data set: cell-based, HIV-1. Particulars: for inhibition at 0.2 µM / inhibition at 2 µM: Human immunodeficiency virus 1, IIIB, MT4, 120 h; for inhibition at 0.2 µM: read-out: % inhibition at 0.2 μM; for inhibition at 2 µM: read-out: % inhibition at 2 μM. The protocol:
Test A: Antiviral Assay in MT4 Cells
MT-4 cells were next mixed with HIV-IIIb at an m.o.i of 0.003 for 1 hour, after which time 35 μL of virus/cell mixture (2000 cells) was immediately added to each well containing 40 μL of diluted compound. The plates were then incubated at 37° C. for 5 days. […] Cell lysis was carried out by incubating at room temperature for 10 min and then chemiluminescence was read.

The nature of data set [1]: Test B: Cytotoxicity Assay. It is filed as cell-based. To be noted: human, uninfected MT-4 cells, same protocol as Test A. The procedure, abridged:
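Uninfected MT-4 cells (2000 per well) incubated with diluted compound at 37° C. for 5 days, following the antiviral protocol without HIV-IIIb.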

Take `Cn1nc(NS(C)(=O)=O)c2cccc(-c3ccc(C#CC(C)(C)O)nc3[C@H](Cc3cc(F)cc(F)c3)NC(=O)Cn3nc(C(F)F)c4c3C3CC3CC4)c21` (stereo partly drawn) [Compound 43, 2-(3-(difluoromethyl)-5,5a,6,6a-tetrahydrocyclopropa[g]indazol-1(4H)-yl)-N—((S)-2-(3,5-difluorophenyl)-1-(6-(3-hydroxy-3-methylbut-1-yn-1-yl)-3-(1-methyl-3-(methylsulfonamido)-1H-indazol-7-yl)pyridin-2-yl)ethyl)acetamide]: in the data set on HIV-IIIb, the inhibition at 0.2 µM was 100% and the inhibition at 2 µM stood at 100%. The cytotoxic concentration (CC50) at 5 days in data set [1] came to 15.4 µM.

In the case of `CC(C)(O)C#Cc1ccc(-c2cccc3[nH]ncc23)c([C@H](Cc2cc(F)cc(F)c2)NC(=O)Cn2nc(C(F)(F)F)c3c2C(F)(F)[C@@H]2C[C@H]32)n1` [Compound 72, 2-((3bS,4aR)-5,5-difluoro-3-(trifluoromethyl)-3b,4,4a,5-tetrahydro-1H-cyclopropa[3,4]cyclopenta[1,2-c]pyrazol-1-yl)-N—((S)-2-(3,5-difluorophenyl)-1-(6-(3-hydroxy-3-methylbut-1-yn-1-yl)-3-(1H-indazol-4-yl)pyridin-2-yl)ethyl)acetamide], in the data set on HIV-IIIb, the inhibition at 0.2 µM amounted to 85% and the inhibition at 2 µM was 87%. For the same compound, in data set [1], half-maximal cytotoxicity (CC50 at 5 days) was put at 5.87 µM.

Consider `CCOC(=O)c1nn(CC(=O)N[C@@H](Cc2cc(F)cc(F)c2)c2nc(C#CC(C)(C)O)ccc2-c2ccc(Cl)c3c(NS(C)(=O)=O)nn(C)c23)c2c1[C@H]1C[C@H]1C2(F)F` [Compound 158G, (3bS,4aR)-ethyl 1-(2-(((S)-1-(3-(4-chloro-1-methyl-3-(methylsulfonamido)-1H-indazol-7-yl)-6-(3-hydroxy-3-methylbut-1-yn-1-yl)pyridin-2-yl)-2-(3,5-difluorophenyl)ethyl)amino)-2-oxoethyl)-5,5-difluoro-3b,4,4a,5-tetrahydro-1H-cyclopropa[3,4]cyclopenta[1,2-c]pyrazole-3-carboxylate], for which, in the data set with HIV-IIIb, the inhibition at 0.2 µM worked out at 71% and the inhibition at 2 µM is 71%. Further, the CC50 at 5 days in data set [1] stood at 26.7 µM.

Turning to `CN(C)C(=O)c1nn(CC(=O)N[C@@H](Cc2cc(F)cc(F)c2)c2nc(C#CC(C)(C)O)ccc2-c2ccc(Cl)c3c(NS(C)(=O)=O)nn(C)c23)c2c1[C@H]1C[C@H]1C2(F)F` [Compound 164, (3bS,4aR)-1-(2-(((S)-1-(3-(4-chloro-1-methyl-3-(methylsulfonamido)-1H-indazol-7-yl)-6-(3-hydroxy-3-methylbut-1-yn-1-yl)pyridin-2-yl)-2-(3,5-difluorophenyl)ethyl)amino)-2-oxoethyl)-5,5-difluoro-N,N-dimethyl-3b,4,4a,5-tetrahydro-1H-cyclopropa[3,4]cyclopenta[1,2-c]pyrazole-3-carboxamide], in the data set on HIV-IIIb, the inhibition at 0.2 µM turned out to be 96% and the inhibition at 2 µM was determined as 97%. The compound also had a CC50 at 5 days in data set [1] of 40.5 µM.

On to `CCN1CCN(CC(=O)N[C@@H](Cc2cc(F)cc(F)c2)c2nc(C#CC(C)(C)O)ccc2-c2ccc(Cl)c3c(NS(C)(=O)=O)nn(C)c23)CC1` [Compound 197, (S)—N-(1-(3-(4 chloro-1-methyl-3-(methylsulfonamido)-1H-indazol-7-yl)-6-(3-hydroxy-3-methylbut-1-yn-1-yl)pyridin-2-yl)-2-(3,5-difluorophenyl)ethyl)-2-(4-ethylpiperazin-1-yl)acetamide], for which, in the data set with HIV-IIIb, the inhibition at 2 µM was 63%. The CC50 at 5 days in data set [1] worked out at 15.4 µM.

`CN1CCN(C(=O)Nc2nn(C)c3c(-c4ccc(C#CC(C)(C)O)nc4[C@H](Cc4cc(F)cc(F)c4)NC(=O)Cn4nc(C(F)(F)F)c5c4C(F)(F)[C@@H]4C[C@H]54)cccc23)CC1` [Compound 51, N-(7-(2-((S)-1-(2-((3bS,4aR)-5,5-difluoro-3-(trifluoromethyl)-3b,4,4a,5-tetrahydro-1H-cyclopropa[3,4]cyclopenta[1,2-c]pyrazol-1-yl)acetamido)-2-(3,5-difluorophenyl)ethyl)-6-(3-hydroxy-3-methylbut-1-yn-1-yl)pyridin-3-yl)-1-methyl-1H-indazol-3-yl)-4-methylpiperazine-1-carboxamide]: in the data set on HIV-IIIb, the inhibition at 0.2 µM turned out to be 95% and the inhibition at 2 µM came to 95%. This compound gave a cytotoxic concentration (CC50) at 5 days in data set [1] of 11.1 µM.

`CC(C)(O)C#Cc1ccc(-c2cc(C(=O)NC3COC3)c3nccn3c2)c([C@H](Cc2cc(F)cc(F)c2)NC(=O)Cn2nc(C(F)(F)F)c3c2C(F)(F)[C@@H]2C[C@H]32)n1` [Compound 35D, 6-(2-((S)-1-(2-((3bS,4aR)-5,5-difluoro-3-(trifluoromethyl)-3b,4,4a,5-tetrahydro-1H-cyclopropa[3,4]cyclopenta[1,2-c]pyrazol-1-yl)acetamido)-2-(3,5-difluorophenyl)ethyl)-6-(3-hydroxy-3-methylbut-1-yn-1-yl)pyridin-3-yl)-N-(oxetan-3-yl)imidazo[1,2-a]pyridine-8-carboxamide]: in the data set on HIV-IIIb, the inhibition at 0.2 µM was 28% and the inhibition at 2 µM was determined as 91%. Also, in data set [1], the half-maximal cytotoxic concentration (CC50) at 5 days came to 14.2 µM.

On to `CC(C)(O)C#Cc1ccc(-c2ccc(F)c(C(N)=O)c2)c([C@H](Cc2cc(F)cc(F)c2)NC(=O)Cn2nc(C(F)F)c3c2C(F)(F)CCC3(F)F)n1` [Compound 28, (S)-5-(2-(1-(2-(3 (difluoromethyl)-4,4,7,7-tetrafluoro-4,5,6,7-tetrahydro-1H-indazol-1-yl)acetamido)-2-(3,5-difluorophenyl)ethyl)-6-(3-hydroxy-3-methylbut-1-yn-1-yl)pyridin-3-yl)-2-fluorobenzamide], for which the “Response at 0.2 μM” value in the data set on HIV-IIIb (percent inhibition of virus-induced cell killing at 0.2 μM, comparison with previously published compounds (WO 2013/006738)) came out at 71%. In addition, in the data set with HIV-IIIb (percent inhibition of virus-induced cell killing at 2 μM, comparison with previously published compounds (WO 2013/006738)), the “Response at 2 μM” value is given as 84%. The same compound had a CC50 at 5 days in data set [1] of 12.2 µM.

`CC(C)(C)C#Cc1ccc(-c2ccc(Cl)n3c(N)nnc23)c([C@H](Cc2cc(F)cc(F)c2)NC(=O)Cn2nc(C(F)F)c3c2C(F)(F)[C@@H]2C[C@H]32)n1` [Compound 115C, N—((S)-1-(3-(3-amino-5-chloro-[1,2,4]triazolo[4,3-a]pyridin-8-yl)-6-(3,3-dimethylbut-1-yn-1-yl)pyridin-2-yl)-2-(3,5-difluorophenyl)ethyl)-2-((3b-S,4aR)-3-(difluoromethyl)-5,5-difluoro-3b,4,4a,5-tetrahydro-1H-cyclopropa[3,4]cyclopenta[1,2-c]pyrazol-1-yl)acetamide]: in the data set with HIV-IIIb, the inhibition at 0.2 µM stood at 84% and the inhibition at 2 µM amounted to 91%. Moreover, the CC50 at 5 days in data set [1] was 9.31 µM.

As to `CNS(=O)(=O)Nc1nn(C)c2c(-c3ccc(C#CC(C)(C)O)nc3[C@H](Cc3cc(F)cc(F)c3)NC(=O)Cn3nc(C(F)F)c4c3C(F)(F)[C@@H]3C[C@H]43)ccc(Cl)c12` [Compound 123, N—((S)-1-(3-(4-chloro-1-methyl-3-((N-methylsulfamoyl)amino)-1H-indazol-7-yl)-6-(3-hydroxy-3-methylbut-1-yn-1-yl)pyridin-2-yl)-2-(3,5-difluorophenyl)ethyl)-2-((3b-S,4aR)-3-(difluoromethyl)-5,5-difluoro-3b,4,4a,5-tetrahydro-1H-cyclopropa[3,4]cyclopenta[1,2-c]pyrazol-1-yl)acetamide], in the data set on HIV-IIIb, the inhibition at 0.2 µM is 90% and the inhibition at 2 µM is 90%. The CC50 at 5 days in data set [1] is 7.9 µM.

For `Cc1c(-c2ccc(C#CC(C)(C)O)nc2[C@H](Cc2cc(F)cc(F)c2)NC(=O)Cn2nc(C(F)(F)F)c3c2C(F)(F)[C@@H]2C[C@H]32)ccc2n[nH]c(=O)n12` [Compound 27G, 2-((3bS,4aR)-5,5-difluoro-3-(trifluoromethyl)-3b,4,4a,5-tetrahydro-1H-cyclopropa[3,4]cyclopenta[1,2-c]pyrazol-1-yl)-N—((S)-2-(3,5-difluorophenyl)-1-(6-(3-hydroxy-3-methylbut-1-yn-1-yl)-3-(5-methyl-3-oxo-2,3-dihydro-[1,2,4]triazolo[4,3-a]pyridin-6-yl)pyridin-2-yl)ethyl)acetamide], in the data set on HIV-IIIb, the inhibition at 0.2 µM came out at 89% and the inhibition at 2 µM came out at 89%. For the same compound, the CC50 at 5 days in data set [1] came to 10.4 µM.

For the compound `CC(C)(O)C#Cc1ccc(-c2cc(F)c(F)c(C(N)=O)c2)c([C@H](Cc2cc(F)cc(F)c2)NC(=O)Cn2nc(C(F)(F)F)c3c2C(F)(F)[C@@H]2C[C@H]32)n1` [Compound 30, 5-(2-((S)-1-(2-((3bS,4aR)-5,5-difluoro-3-(trifluoromethyl)-3b,4,4a,5-tetrahydro-1H-cyclopropa[3,4]cyclopenta[1,2-c]pyrazol-1-yl)acetamido)-2-(3,5-difluorophenyl)ethyl)-6-(3-hydroxy-3-methylbut-1-yn-1-yl)pyridin-3-yl)-2,3-difluorobenzamide], in the data set with HIV-IIIb, the inhibition at 0.2 µM is 1% and the inhibition at 2 µM came to 91%. For the same compound, the midpoint of cytotoxicity in data set [1], the CC50 at 5 days, lay at 8.58 µM.

In the case of `CNc1nn(C)c2c(-c3ccc(C#CC(C)(C)O)nc3[C@H](Cc3cc(F)cc(F)c3)NC(=O)Cn3nc(C(F)F)c4c3C(F)(F)[C@@H]3C[C@H]43)cccc12` [Compound 68G, 2-((3b-S,4aR)-3-(difluoromethyl)-5,5-difluoro-3b,4,4a,5-tetrahydro-1H-cyclopropa[3,4]cyclopenta[1,2-c]pyrazol-1-yl)-N—((S)-2-(3,5-difluorophenyl)-1-(6-(3-hydroxy-3-methylbut-1-yn-1-yl)-3-(1-methyl-3-(methylamino)-1H-indazol-7-yl)pyridin-2-yl)ethyl)acetamide], in the data set with HIV-IIIb, the inhibition at 0.2 µM turned out to be 96% and the inhibition at 2 µM came out at 96%. For the same compound, the CC50 at 5 days in data set [1] was 9.64 µM.

Broadly, the inhibition is the change of the read-out against control, counted positive when it falls. What is called CC50 is the concentration that lowers cell viability or growth by half. Read a high CC50 as lower toxicity to the cells.
